# Values quoted from earlier work, collected in paper PMC8513935.
# What was measured:
# [1] = experimental, compiled by the authors from the literature (the ESI cites the sources)
# [2] = derived by the authors as gas->solvent minus gas->water (a hypothetical dry solvent; the ESI), not a two-phase measurement; settings: 25 C
SMILES,"log K of transfer, gas to solvent ([1]; Hexadecane, 25 C) [log10 K]","log K of transfer, gas to solvent ([1]; Water, 25 C) [log10 K]",also measured
CN1CCCC1=O,3.83,5.74,–
CN(C)C=O,3.17,5.73,"log K of transfer, gas to solvent ([1]; Butanone, 25 C): 4.7 log10 K; log K of transfer, gas to solvent ([1]; Octan-1-ol, 25 C): 4.38 log10 K; log K of transfer, gas to solvent ([1]; Propanone, 25 C): 4.71 log10 K; log K of transfer, gas to solvent ([1]; Tetrahydrofuran, 25 C): 4.39 log10 K; log K of transfer, water to solvent ([2]; Acetone): -1.02 log10 K; log K of transfer, water to solvent ([2]; Butanone): -1.03 log10 K; log K of transfer, water to solvent ([2]; Hexadecane): -2.56 log10 K; log K of transfer, water to solvent ([2]; Octan-1-ol(dry)): -1.35 log10 K; log K of transfer, water to solvent ([2]; Tetrahydrofuran): -1.34 log10 K"
c1ccc2cnccc2c1,5.59,3.92,"log K of transfer, gas to solvent ([1]; Chloroform, 25 C): 6.9 log10 K; log K of transfer, water to solvent ([2]; Chloroform): 2.98 log10 K; log K of transfer, water to solvent ([2]; Hexadecane): 1.67 log10 K"
Fc1ccc(Cl)cc1,3.55,0.63,–
C=CCCCCCCCC,4.53,-1.64,–
CCCSCCC,4.01,0.94,–
COC1CCCCC1,3.86,2.43,–
CCCC(C)CC (stereo not drawn),3.04,-1.99,–
O=C1CCCCCCC1,4.98,3.38,–
N,0.319,3.19,"log K of transfer, gas to solvent ([1]; 2-Methylpropan-1-ol, 25 C): 1.86 log10 K; log K of transfer, gas to solvent ([1]; Butan-1-ol, 25 C): 1.76 log10 K; log K of transfer, gas to solvent ([1]; Butanone, 25 C): 1.42 log10 K; log K of transfer, gas to solvent ([1]; CCl4, 25 C): 0.79 log10 K; log K of transfer, gas to solvent ([1]; Chlorobenzene, 25 C): 0.999 log10 K; log K of transfer, gas to solvent ([1]; Chloroform, 25 C): 1.77 log10 K; log K of transfer, gas to solvent ([1]; Ethanol, 25 C): 2.01 log10 K; log K of transfer, gas to solvent ([1]; Methanol, 25 C): 2.26 log10 K; log K of transfer, gas to solvent ([1]; Propan-1-ol, 25 C): 1.76 log10 K; log K of transfer, gas to solvent ([1]; Propan-2-ol, 25 C): 1.74 log10 K; log K of transfer, gas to solvent ([1]; Propanone, 25 C): 1.48 log10 K"
CCOC,1.59,1.54,–
Oc1ccc(F)cc1,3.84,4.54,"log K of transfer, gas to solvent ([1]; 1,2-Dichloroethane, 25 C): 5.25 log10 K; log K of transfer, gas to solvent ([1]; CCl4, 25 C): 4.28 log10 K"
CC1CCNCC1,3.23,3.15,–
CSC,2.04,1.18,"log K of transfer, gas to solvent ([1]; Hexane, 25 C): 2.17 log10 K"
CCCC1CCCCC1,4.31,-1.32,–
C1CCSC1,3.06,1.66,–
CN1CCCCC1=O,3.97,4.91,–
Cc1cccnc1C,4.04,3.54,–
CCCCCCCC(C)C,4.45,-2.27,–
CCCC(C)(C)O,3.24,3.25,–
C=CCCCCCCCCC,5.02,-1.75,–
CCCCC(C)(C)O,3.68,3.06,–

SMILES,"log K of transfer, gas to solvent ([1]; Hexadecane, 25 C) [log10 K]","log K of transfer, gas to solvent ([1]; Water, 25 C) [log10 K]",also measured
C[C@@H]1CCCC[C@@H]1C,3.85,-1.17,–
Cc1ccc(C)nc1,3.98,3.46,–
C1C2CC3CC1CC(C2)C3,4.93,0.12,–
CCCCCCCCCCCCCCO,7.63,2.26,"log K of transfer, gas to solvent ([1]; Decan-1-ol, 25 C): 8.88 log10 K; log K of transfer, gas to solvent ([1]; Hexan-1-ol, 25 C): 8.94 log10 K; log K of transfer, gas to solvent ([1]; Propan-2-ol, 25 C): 9.05 log10 K"
OC1CCCCCC1,4.4,4.02,–
CCCF,1.25,-0.24,–
C[C@H]1CC[C@H](C)CC1,3.64,-1.4,–
CCCCCCCCCCCCCCCO,8.14,2.14,"log K of transfer, gas to solvent ([1]; Di-n-butyl ether, 25 C): 9.07 log10 K"
CC1CCCNC1 (stereo not drawn),3.23,3.16,–
CCCCCCCCCCCCCCCCCCCO,10.2,1.66,–
O=C1CCCCCC1,4.37,3.42,–
OC1CCCCCCC1,5.05,3.81,–
Cc1ccncc1C,4.31,3.83,–
CCCCCCC(C)C,3.96,-2.15,–
CC(C)(C)C1CCCCC1,4.6,-1.28,–
CCCCCCCCCCCCCO,7.13,2.38,–
CCNC(C)=O,3.84,6.72,–
CC1CCCCN1 (stereo not drawn),3.23,3.15,–
C1CCCCCCC1,4.33,-0.63,–
Cc1ccnc(C)c1,4,3.57,–
CCCCNC(C)=O,4.58,6.57,–
CCCC(=O)CC,3.27,2.41,–

SMILES,"log K of transfer, gas to solvent ([1]; Hexadecane, 25 C) [log10 K]","log K of transfer, gas to solvent ([1]; Water, 25 C) [log10 K]",also measured
CCCN,2.14,3.22,"log K of transfer, gas to solvent ([1]; 1,2-Dichloroethane, 25 C): 2.96 log10 K; log K of transfer, gas to solvent ([1]; Benzene, 25 C): 2.7 log10 K; log K of transfer, gas to solvent ([1]; CCl4, 25 C): 2.63 log10 K; log K of transfer, gas to solvent ([1]; Chlorobenzene, 25 C): 2.63 log10 K; log K of transfer, gas to solvent ([1]; Chloroform, 25 C): 3.47 log10 K; log K of transfer, gas to solvent ([1]; Cyclohexane, 25 C): 2.24 log10 K; log K of transfer, gas to solvent ([1]; Di-n-butyl ether, 25 C): 2.14 log10 K; log K of transfer, gas to solvent ([1]; Hexane, 25 C): 2.26 log10 K; log K of transfer, gas to solvent ([1]; Toluene, 25 C): 2.57 log10 K"
CCF,0.751,-0.3,"log K of transfer, gas to solvent ([1]; Tetrahydrofuran, 25 C): 1.31 log10 K"
CC(C)CCC(C)(C)C,3.57,-2.15,–
CCCCCCCCCCCO,6.12,2.5,"log K of transfer, gas to solvent ([1]; Decan-1-ol, 25 C): 7.53 log10 K"
Fc1cccc(Cl)c1,3.53,0.65,–
CC(=O)CC(C)C,3.09,2.24,–
CCCCN(C=O)CCCC,5.62,4.34,–
OC1CCCC1,3.24,4.03,"log K of transfer, gas to solvent ([1]; Propanone, 25 C): 4.6 log10 K"
CCCCC1CCCCC1,4.8,-1.44,–
CC1CCCCC1=O (stereo not drawn),4.05,3.07,–
CCCC(C)(C)C,2.79,-2.11,–
CC(=O)C1CCCCC1,4.62,3.28,–
CNC=O,2.86,6.57,"log K of transfer, gas to solvent ([1]; Propanone, 25 C): 5.39 log10 K"
CCCCC(C)CC (stereo not drawn),3.51,-2.18,–
C=CCCCCCCCCCC,5.51,-1.87,–
Fc1ccccc1Cl,3.64,0.72,–
CCCCCCCCN,4.6,2.68,–
CCCCCCCCCCCCCCCCCO,9.16,1.9,–
CCCCCC1CCCC1,4.6,-1.87,–
CC(C)F,1.15,-0.364,–
